In ChEMBL document CHEMBL1921744, “Lipophosphonoxins: new modular molecular structures with significant antibacterial properties” (J Med Chem, 2011) one finds MIC data, which are given here for one compound.

The experiment relates to Mycobacterium tuberculosis. The experiment can be described thus: Antimycobacterial activity against drug-resistant Mycobacterium tuberculosis. The experiment is classed as functional.

The structures appear in SMILES notation. ≈ marks a conversion by molar mass, not a printed value.

Compound `CO[C@@H]1[C@@H](OC)[C@H](C)O[C@@H](OC(=O)C[C@@H](C)CC(=O)O[C@@H](CCCCCCCCCCCC(C)C)CC(=O)O[C@H]2CN(C)[C@@H]([C@H](O[C@@H]3O[C@H](CN)[C@@H](O)[C@H]3O)[C@H]3O[C@@H](n4ccc(=O)[nH]c4=O)[C@H](O)[C@@H]3O)C(=O)N(C)[C@@H]2C(=O)O)[C@@H]1OC` [CAPRAZAMYCIN B] registered an MIC of 3.13 µg/mL (≈ 2.7 µM).
